Experiments:
[1] = system: Human respiratory syncytial virus (RSV); assay: Viral inactivation, modified plaque assay; type: cell-based; details: 6 h, Ringer's/Lactate solution
Procedure: Human respiratory syncytial virus (RSV) was inactivated by using Compound VI or Compound X. For that purpose, sucrose gradient-purified virus was treated with 100 μM of Compound VI and Compound X at RT. […] The virus titers were determined using standard 10× serial dilutions in a modified plaque assay. For mock-treated virus no significant changes in RSV infectivity were found even after 6 h incubation at RT (in different experiments, the reduction of titers were in the range of 0.11-0.36 Login PFU/mL).
Inactivation of RSV with different concentrations of Compound XVI at RT and 40° C. was performed as described in Example 9.

[2] = Neutralization of compound X by ethyl 2-mercaptoacetate (LCMS); type: physicochemical; details: PBS, RT; for Peak Areas (LCMS): 100 μM X + 10 mM ethyl 2-mercaptoacetate
Procedure: 100 μM solution of compound X in phosphate buffered saline was incubated at room temperature with 10 mM of ethyl-2-mercaptoacetate, and the change of the concentration of compound X, as well as the formation of the intermediate compound of neutralization (XXI) and the final compound of neutralization XXII was determined by LCMS analysis of the mixture. The reaction scheme of neutralization is presented below. The peak areas of compound X, intermediate neutralization product, Q1 (compound XXI) and final neutralization product, Q2 (compound XXII) are presented in the Table 8 below, and in FIG. 18.

Y. enterocolitica = assay: Bacterial inactivation in Ringer's solution, colony agar plate count; type: cell-based; details: 100 μM, RT, 1 h treatment
Procedure: (§1) A panel of G+F and G-bacteria were inactivated in their respective growth medium using compound VI, compound X, and compound XIV. All cells were grown in corresponding media to middle log phase, collected by centrifugation, re-suspended in Ringer's solution (RS), and treated at RT with 100 μM of compound VI, compound X, and compound XIV, which were added to the suspension as 100× concentrate in RS. Controls received RS only. At the end of the incubation, unreacted compound VI, compound X, and compound XIV were neutralized with 10 mM sodium thiophosphate during incubation at RT for 30 min. The viable cells were enumerated using serial dilutions by standard colony agar plate count. Table 1 summarizes the typical results of 1 h treatment of E. coli, P. fluorescens, Y. enterocolitica, B. cereus, S. aureus, and S. epidermidis with compound VI, compound X, and compound XIV.

S. aureus = assay: as above; type: cell-based; details: 100 μM, RT, 1 h treatment
Procedure: as §1

B. cereus = assay: as above; type: cell-based; details: 100 μM, RT, 1 h treatment
Procedure: as §1

E. coli = assay: as above; type: cell-based; details: 100 μM, RT, 1 h treatment
Procedure: as §1

P. fluorescens = assay: as above; type: cell-based; details: 100 μM, RT, 1 h treatment
Procedure: as §1

S. epidermidis = assay: as above; type: cell-based; details: 100 μM, RT, 1 h treatment
Procedure: as §1

[3] = system: Plasmodium falciparum 3D7; assay: Inactivation of blood-borne parasites in fresh human red blood cells; type: cell-based; details: 250 μM, 24 hours, physiological temperature
Procedure: (§2) Inactivation of blood-borne parasites, Plasmodium falciparum 3D7 and Babesia divergens Rouen, was conducted in fresh human red blood cells for 24 hours at physiological temperature. […] Above six logs inactivation of Candida albicans, a representative of pathogenic fungi, and three logs inactivation of Tetrahymena thermophila, a model organism for ciliated protozoa, were achieved by compound XIV at 250 μM in their respective growth media.

Babesia divergens Rouen = assay: as above; type: cell-based; details: 250 μM, 24 hours, physiological temperature
Procedure: as §2

Candida albicans = assay: Fungal inactivation in growth media; type: cell-based; details: 250 μM
Procedure: as §2

| SMILES | Peak Areas (LCMS) ([2]; Time 6 min) | Peak Areas (LCMS) ([2]; Time 14.5 min) | Peak Areas (LCMS) ([2]; Time 23.1 min) | Peak Areas (LCMS) ([2]; Time 31.6 min) | Peak Areas (LCMS) ([2]; Time 40.2 min) | Peak Areas (LCMS) ([2]; Time 48.7 min) | Peak Areas (LCMS) ([2]; Time 57.3 min) | Peak Areas (LCMS) ([2]; Time 65.8 min) | Peak Areas (LCMS) ([2]; Time 74.3 min) | Peak Areas (LCMS) ([2]; Time 82.9 min) | Peak Areas (LCMS) ([2]; Time 91.4 min) | Peak Areas (LCMS) ([2]; Time 100.0 min) | Peak Areas (LCMS) ([2]; Time 108.5 min) | Peak Areas (LCMS) ([2]; Time 117.1 min) | Peak Areas (LCMS) ([2]; Time 125.6 min) | other results |
| --- | --- | --- | --- | --- | --- | --- | --- | --- | --- | --- | --- | --- | --- | --- | --- | --- |
| CN(CCCN1CC1)CCCN1CC1 [Compound XVI, 3-(aziridin-1-yl)-N-(3-(aziridin-1-yl)propyl)-N-methylpropan-1-amine] |  |  |  |  |  |  |  |  |  |  |  |  |  |  |  | RSV Inactivation (difference between TO titer and titer) ([1]; 40° C., 100 μM): >6.48 Log10 PFU/mL; RSV titer ([1]; 40° C., 100 μM): <0.52 Log10 PFU/mL; RSV Inactivation (difference between TO titer and titer) ([1]; 40° C., 250 μM): >6.48 Log10 PFU/mL; RSV titer ([1]; 40° C., 250 μM): <0.52 Log10 PFU/mL; RSV Inactivation (difference between TO titer and titer) ([1]; 40° C., 500 μM): >6.48 Log10 PFU/mL; RSV titer ([1]; 40° C., 500 μM): <0.52 Log10 PFU/mL; RSV Inactivation (difference between TO titer and titer) ([1]; RT, 100 μM): 5.02 Log10 PFU/mL; RSV titer ([1]; RT, 100 μM): 1.98 Log10 PFU/mL; RSV Inactivation (difference between TO titer and titer) ([1]; RT, 250 μM): 5.50 Log10 PFU/mL; RSV titer ([1]; RT, 250 μM): 1.50 Log10 PFU/mL; RSV Inactivation (difference between TO titer and titer) ([1]; RT, 500 μM): >6.48 Log10 PFU/mL; RSV titer ([1]; RT, 500 μM): <0.52 Log10 PFU/mL |
| CCOC(=O)CSCCNCCCN(C)CCCN(C)CCCCN(C)CCCN1CC1 [XXI] | 181.6 | 307 | 363.5 | 375.8 | 390.1 | 368.5 | 338.6 | 331.1 | 306.5 | 268.6 | 256 | 227.8 | 202.2 | 195 | 174 | first order rate constant of concentration decrease ([2]; 10 mM ethyl 2-mercaptoacetate): 0.026 min⁻¹ |
| CN(CCCCN(C)CCCN(C)CCCN1CC1)CCCN(C)CCCN1CC1 [Compound XIV] |  |  |  |  |  |  |  |  |  |  |  |  |  |  |  | Titer (Y. enterocolitica): 5.04 Log10CFU/mL; Titer (S. aureus): 5.08 Log10CFU/mL; Titer (B. cereus): ≤1.00 Log10CFU/mL; Titer (E. coli): 3.51 Log10CFU/mL; Titer (P. fluorescens): ≤1.00 Log10CFU/mL; Titer (S. epidermidis): 6.32 Log10CFU/mL; reduction of the number of viable plasmodium organisms [3]: ≥ 7 logs; reduction of the number of viable babesia (Babesia divergens Rouen): 8 logs; inactivation of Candida albicans (Candida albicans): Above six |
| CCOC(=O)CSCCNCCCN(C)CCCCN(C)CCCN(C)CCCNCCSCC(=O)OCC [XXII] | 48.7 | 131.9 | 214.4 | 280.7 | 349.3 | 397.1 | 424.3 | 479.4 | 489.3 | 498.6 | 513.2 | 527 | 520.5 | 548.8 | 536.5 |  |

Source: patent US20250127168A1, “METHOD FOR PATHOGENS, MICROORGANISMS, AND PARASITES INACTIVATION” (New York Blood Center, Inc., priority 2018, published 2025)
